Laboratory results from PMC4109680, “Identification and Preclinical Pharmacology of the γ-Secretase Modulator BMS-869780” (International Journal of Alzheimer's Disease, 2014).

Experiment: Pharmacokinetics in male cynomolgus monkeys
Format: in vivo
Details: cynomolgus monkey, plasma
Protocol: Male Sprague-Dawley (SD) rats (300–350 g) were fasted overnight, and three per group received BMS-869780 either as an intravenous (IV) infusion in PEG400 : ethanol (90 : 10 w/w) at 1 mg/kg over 5 min via the jugular vein or as nanosuspension (d50 ca. 300 nm) by oral gavage at 5 mg/kg in Povidone K-30 : sodium lauryl sulfate : water (2.5 : 0.12 : 97.38 w/w/w/w). For the IV infusion, serial blood samples were obtained before dose and at 0.17, 0.25, 0.5, 0.75, 1, 2, 4, 6, 8, and 24 hours after dose. For the PO nanosuspension, serial blood samples were obtained before dose and at 0.25, 0.5, 0.75, 1, 2, 4, 6, 8, and 24 h after dose. Blood samples, ~0.3 mL, for all studies were collected from the jugular vein into K3EDTA-containing tubes and then centrifuged at 4°C (1500–2000 ×g) to obtain plasma, which was stored at −20°C until analysis by LC/MS/MS. In male beagle dogs, the PK of BMS-869780 was evaluated in a cross-over study design with a one-week washout between treatments. Dogs were fasted overnight, and three animals (9.5 to 10.7 kg) received BMS-869780 by IV infusion at 1 mg/kg over 5 minutes in PEG400 : ethanol (90 : 10 w/w) or as nanosuspension (d50 ca. 300 nm) by oral gavage at 5 mg/kg in Povidone K-30 : sodium lauryl sulfate : water (2.5 : 0.12 : 97.38 w/w/w/w). Serial blood samples (~0.3 mL) were collected from a saphenous vein into K3EDTA-containing tubes before dose and at 0.083, 0.17, 0.25, 0.5, 0.75, 1, 2, 4, 6, 8, and 24 hours after IV dose, and 0.25, 0.5, 0.75, 1, 2, 4, 6, 8, and 24 hours after oral dose, followed by centrifugation at 4°C (1500 to 2000 ×g) to obtain plasma. Samples were stored at −20°C until analysis of BMS-869780 levels by LC-MS/MS. In male cynomolgus monkeys, the PK of BMS-869780 was evaluated in a cross-over study design with a 1-week washout between treatments. Following an overnight fast, three animals (4.5 to 8 kg) received BMS-869780 by IV infusion via a femoral vein at 1 mg/kg over 10 minutes in PEG400 : ethanol (90 : 10), or by oral gavage at 5 mg/kg in Povidone K-30 : sodium lauryl sulfate : water (2.5 : 0.12 : 97.38). Serial blood samples, ~0.3 mL, were collected from a femoral artery into K3EDTA-containing tubes before dose and at 0.083, 0.17, 0.25, 0.5, 0.75, 1, 2, 4, 6, 8, and 24 hours after IV dose, and 0.25, 0.5, 0.75, 1, 2, 4, 6, 8, and 24 hours after oral dose, followed by centrifugation at 4°C (1500 to 2000 ×g) to obtain plasma. Samples were stored at −20°C until analysis of BMS-869780 levels by LC-MS/MS. The PK parameters of BMS-869780 were obtained by noncompartmental analysis of plasma concentration versus time data (WinNonlin software, Version 5.0; Pharsight Corporation, Mountain View, CA). The peak concentration (C max) and time for C max (T max) were recorded directly from experimental observations. The area under the curve from time zero to the last sampling time (AUC^0-T) and the area under the curve from time zero to infinity (AUC^INF) were calculated using a combination of linear and log trapezoidal summations. The total plasma clearance (CLTp), steady-state volume of distribution (Vss), apparent elimination half-life (T 1/2), and mean residence time (MRT) were estimated after IV administration. The absolute oral bioavailability (F) was estimated as the ratio of dose-normalized AUC values following oral and IV doses.
Figure 9 Pharmacokinetics (PK) of BMS-869780 across species for prediction of human PK. Rats, dogs, and cynomolgus monkeys were dosed with BMS-869780 intravenously (IV ▲) at 1 mg/kg or oral nanosuspension (PO ●) at 5 mg/kg. Plasma concentrations of BMS-869780 were determined for up to 24 hours after the dose. (a) Rat. (b) Dog. (c) Cynomolgus monkey.

Q: For `COc1cc(Nc2nc3n(n2)CCCC[C@H]3c2ccc(F)cc2)ccc1-n1cnc(Cl)c1` [BMS-869780], which AUC(0-t) (IV 1 mg/kg) is on record?
A: 2.63 ± 0.926 µM·h

Q: What about the MRT (IV 1 mg/kg) of the same compound?
A: 3.8 ± 0.7 h

Q: What about the clearance (IV 1 mg/kg) of the same compound?
A: 15.2 ± 5.9 mL/min/kg

Q: What about the half-life (IV 1 mg/kg) of the same compound?
A: 4 ± 0.5 h

Q: And the Vd (IV 1 mg/kg, read-out: Vss)?
A: 3.7 ± 1.3 L/kg

Q: What about the AUC(0-t) (PO suspension 5 mg/kg) of the same compound?
A: 2.03 ± 1.04 µM·h

Q: And the Cmax (PO suspension 5 mg/kg)?
A: 219 ± 94 nM

Q: What about the Tmax (PO suspension 5 mg/kg) of the same compound?
A: 2 h

Q: And the bioavailability (PO suspension 5 mg/kg)?
A: 16%
